Like-named read-outs stand apart in the source and are kept apart here.

The target in data set [1] is T1, NTCP (Mus musculus, UniProt O08705).
T1 sequence (O08705 1-362): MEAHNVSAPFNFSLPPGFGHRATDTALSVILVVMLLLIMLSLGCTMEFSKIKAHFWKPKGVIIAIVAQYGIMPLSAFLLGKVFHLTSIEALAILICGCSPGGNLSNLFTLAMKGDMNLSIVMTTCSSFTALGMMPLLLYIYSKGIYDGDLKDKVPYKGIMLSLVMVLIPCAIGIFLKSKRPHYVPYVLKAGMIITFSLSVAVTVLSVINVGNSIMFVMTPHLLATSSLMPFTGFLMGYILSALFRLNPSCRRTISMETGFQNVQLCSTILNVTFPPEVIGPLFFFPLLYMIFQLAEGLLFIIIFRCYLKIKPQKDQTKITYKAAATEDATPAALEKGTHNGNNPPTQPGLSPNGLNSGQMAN
The settings on record: 1 μM Myrcludex B, 30 min preincubation, WT PMHs, 10 μM TCA, 1 minute. An excerpt:
(§1) Bars represent the mean ± SEM for two independent experiments, each performed in triplicate. *P < 0.05. (B) Total serum BA concentrations in male and female WT and Slc10a1^−/− (KO) mice. Data are given as mean ± SEM on a ^10log scale for seven to 16 mice in each group, quantified using the total BA assay. Serum composition of (C) conjugated and (D) unconjugated BA species as quantified using high-pressure liquid chromatography. […] Unconjugated BA (U-BA) concentrations are the sum of ω-muricholic acid, α-muricholic acid, β-muricholic acid, cholic acid, UDCA, chenodeoxycholic acid, and DCA. Data are given as mean ± SEM on a ^10log scale for three to six mice in each group. *P < 0.05 (compared to WT levels). […] Conjugated BA (dark gray) and unconjugated BA (light gray) species are shown as a percentage of total, as quantified using high-pressure liquid chromatography. (F) Total serum BA levels in relation to body weights of WT (open dots) and KO (black dots) 8-week-old mice (n – 11–14). […]
(§2) mouse NTCP antibody in block ing buffer f or 1 hour. Af ter washings, the slides were incubated with goat anti-rabbit Alexa 568 IgG. Images were captured with a Leica SP8X […]
(§3) Primary hepatocyte isolation and sandwich culture
(§4) Primary mouse hepatocytes (PMHs) were isolated from wild- type and Slc10a1 -/- mice by a 2-step collagenase perfusion method. […]

Data set [2] relates to Slc10a1−/− PMHs. In kind it is cell-based, mouse. As to conditions: 1 μM Myrcludex B, sodium-dependent as well as sodium-free conditions.
Source text: as §1, §2, §3, §4

In data set [3] the test system is NTCP. The settings on record: at high concentrations; cited from earlier work. An excerpt:
(§5) During and after a meal, bile acids (BAs) are released into the small intestine, where they facilitate the absorption of dietary fat and fat-soluble vitamins.[1] The majority of BAs are reabsorbed in the terminal ileum and transported back to the liver through the portal circulation. At the basolateral membranes of the hepatocytes, BAs are taken up from the portal circulation, extruded across the canalicular hepatocyte membrane, and transported to the gallbladder to complete the enterohepatic circulation.[2] Conjugated BAs are transported across the basolateral hepatic membrane through a sodiu ...

For data set [4], the system named is hepatitis B virus. As to conditions: cited from earlier work.
Source text: as §5

The conditions of data set [5]: for Serum TCA elimination t½: intravenous bolus 150 μmol TCA/kg with trace tritium-labeled TCA after gallbladder cannulation, one-phase decay, n = 5.
Description: Differences between groups were analyzed using a two-tailed Student t test. […] Results were considered statistically significant at P < 0.05.

For Myrcludex B, in data set [1] (NMDG buffer), the “Effect on TCA uptake under sodium-free conditions” value is listed as “no effect”. Moreover, in data set [1] (sodium-containing buffer), the “Effect on sodium-dependent TCA uptake” value is “abrogated sodium-dependent TCA uptake”. Moreover, the “Effect on TCA uptake in Slc10a1−/− PMHs” value in data set [2] is recorded as “unaffected”. In data set [3], the “NTCP-mediated BA uptake” value is recorded as “inhibits NTCP-mediated BA uptake at high concentrations”. In addition, in data set [4], the “Virus entry mediated by NTCP” value is recorded as “blocked”.

Take `C[C@H](CCC(=O)NCCS(=O)(=O)O)[C@H]1CC[C@H]2[C@@H]3[C@H](O)C[C@@H]4C[C@H](O)CC[C@]4(C)[C@H]3C[C@H](O)[C@]12C` [TCA, taurocholic acid]: the entries for the “Serum TCA elimination t½” value in data set [5] (WT mice) and in data set [5] (normocholanemic Slc10a1−/− mice) were 1.5 min and 5.3 min, respectively. In addition, the “Lethality of the high dose of TCA” value in data set [5] (hypercholanemic Slc10a1−/− mice, intravenous bolus 150 μmol TCA/kg, shortly after injection) is given as “lethal”.
